Tests used:
[1] = tested on: hM4Di-expressing MnPO^nNOS neurons; experiment: Slice current-clamp recording, CNO on hM4Di-expressing MnPO^nNOS neurons; type: cell-based, mice; details: brain slices
Description: Procedures for preparation of acute brain slices and recordings with optogenetic stimulations were similar to those described previously^[10],[36]. After decapitation, the brain was removed and immersed in ice-cold solution. Coronal slices ([…]) were cut using a vibratome (VT-1200s, Leica) and moved into HEPES-holding solution (NaCl 92, KCl 2.5, NaH2PO4 1.2, NaHCO3 30, HEPES 20, glucose 25, Na-ascorbate 5, Thiourea 2, Na14 pyruvate 3, MgSO4 2, CaCl2 2, pH 7.35). The slices were allowed to recover at 33° C. for 30 min and then held at room temperature ([…]) until use.
While recording, slices were perfused continuously (˜2 mL/min) with artificial cerebrospinal fluid (ACSF-NaCl 124, KCl2.5, NaH2PO4 1.2, NaHCO3 24, glucose 25, MgSO4 1, CaCl2 2) at 25° C. Neurons were visualized and targeted using an upright IR19 DIC microscope (BX51WI, Olympus). […] In order to confirm the PSCs recorded were GABAergic, picrotoxin (150 μM) was applied through the bath in part of the experiments. […] CNO (˜6 μM) was applied by a puff (30 s) from another glass pipette placed ˜50 μm from the recorded cell.

mCherry control animals = experiment: mCherry controls for acute inhibition (CNO without hM4Di); type: in vivo, mice
Protocol: Long-term access assays: Optogenetic Testing—For FIGS. 1L-N and FIGS. 7L-O, satiated mice were given ad libitum access to water for 20 min with photostimulation. Photostimulation was delivered for 1-s followed by 3-s intervals throughout the behavioral sessions. For FIGS. 2J-M and FIGS. 11C-E, mice were given access to water for 20 min after 24 h water-restriction, and photostimulation was delivered for the first 10 min. For feeding assays (FIGS. 2J-M), animals were single-housed in Biodaq cages after 24 h food-restriction, and chow intake was measured for 20 min with or without light stimulation. For acute inhibition experiments, mice were given access to 150 mM NaCl (FIGS. 5D-E, FIGS. 13E-F), water (FIGS. 1L-N, FIGS. 7L-O, FIGS. 13A-D, FIGS. 13G-H) for 20-30 min after 24 h water-restriction or 300 mM sucrose (FIGS. 1L-N, FIGS. 7L-O) after food-restriction. For all acute inhibition experiments, CNO was injected at 10 mg/kg body weight, 30 min prior to the start of the behavior session. For acute activation experiments, CNO was injected at 1 mg/kg body weight (FIGS. 12L-M), 30 min prior to the start of the behavior session. […] The weight of the cup was measured before and after the behavior session. […] The entire session was recorded using a camera at 30 fps and ingestion episodes were manually annotated.

Compound: C[N+]1([O-])CCN(C2=Nc3cc(Cl)ccc3Nc3ccccc32)CC1 [CNO, clozapine-N-oxide]
- neurons in which firing is inhibited ([1]; CNO application): 6/6
- firing of hM4Di-expressing MnPO^nNOS neurons ([1]; brief application of CNO): strongly suppressed the firing
- intake after water or food-restriction (mCherry control animals; AAV-DIO-mCherry in the MnPO of nNOS-Cre animals, 5-s brief access): showed no reduction
- saline or water drinking, CNO vs vehicle (mCherry control animals; mCherry controls in MnPO^GLP1r, water deprived, 30 min): No significant difference

— patent US10960084B2, “Modulation of fluid intake” (California Institute of Technology, priority 2018, dated 2021)
